Assay results from patent US20040204368A1, “Oxadiazole derivative compounds and drugs containing these compounds as the active ingredient” (priority 2001, published 2004).

Target: T1, Cathepsin K (Homo sapiens, UniProt P43235)
T1 sequence (P43235 115-329): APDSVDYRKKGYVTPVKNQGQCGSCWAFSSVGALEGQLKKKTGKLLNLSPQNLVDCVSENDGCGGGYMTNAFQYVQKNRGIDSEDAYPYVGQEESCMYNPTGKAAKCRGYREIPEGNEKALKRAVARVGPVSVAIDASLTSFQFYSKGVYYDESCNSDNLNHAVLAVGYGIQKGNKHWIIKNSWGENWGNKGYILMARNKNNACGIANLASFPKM
Assay: Measurement of cathepsin K inhibitory activity
Format: biochemical
Details: Dixon plot, pH 5.5, 37° C.
Protocol: (i) Measurement of Cathepsin K Inhibitory Activity
65 μL of Cathepsin K enzyme reaction buffer (50 mmol/L of 2-(N-morpholino)ethanesulfonate, 2 mmol/L of ethylene diamine tetraacetate (EDTA) and 4 mmol/L of dithio threitol (DTT) were mixed to adjust to pH 5.5), 5 μL of cysteine protease inhibitor solution of several concentrations, 20 μL of synthesized substrate (t-butyloxycarbonyl-L-alanyl-glycyl-L-prolyl-L-arginine-4-methyl-chromanyl-7-amide) solution of several concentrations and 10 μL of cathepsin K enzyme solution were mixed and the increase of fluorescence intensity when reacted at 37° C. was measured (Ex (excitation wavelength)=355 nm, Em (fluorescence wavelength)=460 nm). As to the substrate and the compound of the present invention, enzyme reactions were carried out in combination of several appropriate concentrations and Dixon plotting was prepared, to define the absolute value of X-coordinate of the intersection point of the graph as Ki value.

With `CC(C)CC(NC(=O)C1CCCCCC1)C(=O)c1nnc(SCCN(C)C)o1` (stereo not shown) [example 1] the Ki was 48 nM.
